Assays:
[1] = Hydrolysis of epithiazide to hydroxyhydrothiazide in aqueous phosphate buffer; assay type: physicochemical; settings: 0.067 m phosphate buffer, pH=7, 37°C, 0.067 M aqueous phosphate buffer, read-out: epithiazide cleaved into hydroxyhydrothiazide
Protocol: Figure 1: Hydrolysis of epithiazide to hydroxyhydrothiazide under various temperatures and pH in a 0.067 M phosphate buffer.
Epithiazide was contacted with an aqueous phosphate buffer of 0.067 M at two different temperatures (RT and 37°C), at different pHs, ranging from 5,2 to 13.

[2] = Bioavailability study of epithiazide in healthy volunteers; assay type: in vivo
[3] = Intravenous administration to dogs: elimination and urine production; assay type: in vivo; settings: 0.08-0.4 mg/kg
Protocol: The pharmacotherapeutic activity of the hydroxyhydrothiazides has been evaluated. The natriuretic an/or diuretic activity has been determined by testing on animals and healthy volunteers.
The elimination from the body was monitored for 48 hours. […] The diuretic effect was monitored by measuring the urine production.

[4] = pKa of isolated hydroxyhydrothiazide; assay type: physicochemical; settings: isolated and purified product
Protocol: The hydroxyhydrothiazide was synthesised by the hydrolysis of epithiazide. Conversion to hydroxyhydrothiazide was completed in 72 hours at 37 °C in a 0.067 M phosphate buffer.

[5] = after administration of a suitable dose of epithiazide

Row | Structure (SMILES) | degraded at 10 h [1] | detection in the plasma [2, 5] | detection in the urine [2, 5] | distribution of the compound throughout the body [3] | diuretic effect (urine production) [3] | half-life compared with conventional thiazide-based diuretics such as epithiazide and hydrochlorothiazide ([3]; elimination monitored for 48 hours) | pKa [4] | biological half-life (relative to epithiazide) ([2]; compound found after administration of epithiazide)
1 | NS(=O)(=O)c1cc2c(cc1Cl)NC(CSCC(F)(F)F)NS2(=O)=O (centres unmarked) [epithiazide] | > 80% | no epithiazide could be detected | detected |  |  |  |  | 
2 | NS(=O)(=O)c1cc2c(cc1Cl)NC(O)NS2(=O)=O (centres unmarked) [hydroxyhydrothiazide] |  |  |  | rapid distribution | instant diuretic effect | about twice as long | 9.5 | longer biological half-life
